According to ChEMBL document CHEMBL1201862, “PubChem BioAssay data set” (2004):
Active and inactive are the calls of the source.

Columns and labels:
[1] = growth suppression of PTEN-null colon cells, dose response, cell-based, HCT116 PTEN knockout (AID 1047); format: functional;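 also: HCT116 colon tumor cells with PTEN knocked out; cells exposed to compound for 60 hours before readout; potency for loss of cell viability measured by luminescence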
[2] = growth suppression of beta-catenin-knockout colon cells, dose response, cell-based, HCT116, human colon tumor (AID 1045); format: functional;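 also: HCT116 colon tumor cells with beta catenin knocked out; cells exposed to compound for 60 hours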
[3] = Luminescence Cell-Based Dose Retest to Confirm Inhibitors of Cancer Stem Cells. [Related pubchem assays (depositor defined):AID2717, AID2721]; format: functional; conditions: Homo sapiens
[4] = target: T1, Probable nicotinate-nucleotide adenylyltransferase (Staphylococcus aureus (strain N315), UniProt P65502); format: functional, Staphylococcus aureus subsp. aureus N315;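 as to IC50 Mean: confirmatory dose-response retesting of NadD inhibitor hits first found in an ultra-high-throughput screen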
T1 sequence (P65502 whole entry): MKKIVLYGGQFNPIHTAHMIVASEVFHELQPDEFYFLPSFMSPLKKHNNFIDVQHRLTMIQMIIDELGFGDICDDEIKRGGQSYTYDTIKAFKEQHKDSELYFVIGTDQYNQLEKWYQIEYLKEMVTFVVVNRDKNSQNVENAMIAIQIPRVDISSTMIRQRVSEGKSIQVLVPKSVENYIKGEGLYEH

[5] = target: T1, Probable nicotinate-nucleotide adenylyltransferase; format: functional, Staphylococcus aureus subsp. aureus N315; conditions: read-out: IC50_Mean
[6] = target: T2, Histone-lysine N-methyltransferase NSD2 (Homo sapiens, UniProt O96028); format: biochemical
T2 sequence (O96028 whole entry): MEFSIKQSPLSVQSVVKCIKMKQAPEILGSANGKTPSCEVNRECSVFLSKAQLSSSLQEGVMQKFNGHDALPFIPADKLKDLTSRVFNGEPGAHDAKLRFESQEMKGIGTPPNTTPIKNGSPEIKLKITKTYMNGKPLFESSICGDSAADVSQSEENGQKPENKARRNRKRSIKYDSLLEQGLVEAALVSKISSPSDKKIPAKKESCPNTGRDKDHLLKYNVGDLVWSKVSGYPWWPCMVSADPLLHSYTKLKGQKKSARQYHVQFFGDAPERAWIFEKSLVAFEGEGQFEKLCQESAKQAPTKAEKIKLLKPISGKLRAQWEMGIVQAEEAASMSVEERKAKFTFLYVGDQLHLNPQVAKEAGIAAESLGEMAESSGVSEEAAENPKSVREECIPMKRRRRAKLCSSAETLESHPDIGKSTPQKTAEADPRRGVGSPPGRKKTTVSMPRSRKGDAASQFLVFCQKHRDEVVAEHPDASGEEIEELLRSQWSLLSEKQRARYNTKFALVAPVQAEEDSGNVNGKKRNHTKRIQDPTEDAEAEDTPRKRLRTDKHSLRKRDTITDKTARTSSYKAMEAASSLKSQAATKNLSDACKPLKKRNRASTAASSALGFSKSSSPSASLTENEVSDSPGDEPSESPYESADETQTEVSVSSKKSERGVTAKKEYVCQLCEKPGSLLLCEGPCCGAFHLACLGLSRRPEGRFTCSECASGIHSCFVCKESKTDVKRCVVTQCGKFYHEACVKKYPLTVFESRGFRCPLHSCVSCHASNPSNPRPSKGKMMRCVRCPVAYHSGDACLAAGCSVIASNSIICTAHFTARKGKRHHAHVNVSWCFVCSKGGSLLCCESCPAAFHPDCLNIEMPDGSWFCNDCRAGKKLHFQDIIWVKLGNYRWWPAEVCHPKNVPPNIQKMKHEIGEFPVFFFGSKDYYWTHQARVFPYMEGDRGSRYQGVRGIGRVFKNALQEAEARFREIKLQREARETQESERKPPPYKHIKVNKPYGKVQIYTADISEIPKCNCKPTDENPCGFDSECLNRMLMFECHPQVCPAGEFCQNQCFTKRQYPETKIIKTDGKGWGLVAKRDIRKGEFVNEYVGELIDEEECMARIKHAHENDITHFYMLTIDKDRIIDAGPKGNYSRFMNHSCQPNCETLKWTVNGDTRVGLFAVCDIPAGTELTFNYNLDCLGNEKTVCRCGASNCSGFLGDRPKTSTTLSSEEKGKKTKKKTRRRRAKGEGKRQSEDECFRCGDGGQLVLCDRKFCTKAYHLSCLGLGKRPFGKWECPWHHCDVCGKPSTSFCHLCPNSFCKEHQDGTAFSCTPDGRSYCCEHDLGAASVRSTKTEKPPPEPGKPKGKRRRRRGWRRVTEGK

[7] = target: G-protein coupled receptor 35 (Homo sapiens, UniProt Q9HC97); test: GPR35 antagonists blocking zaprinast-driven arrestin recruitment, primary screen, imaging, U2OS, beta-arrestin-GFP, zaprinast agonist (AID 2058); format: functional;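 also: antagonist potency meaning inhibition of agonist-induced arrestin redistribution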
Sequence of G-protein coupled receptor 35 (Q9HC97 whole entry): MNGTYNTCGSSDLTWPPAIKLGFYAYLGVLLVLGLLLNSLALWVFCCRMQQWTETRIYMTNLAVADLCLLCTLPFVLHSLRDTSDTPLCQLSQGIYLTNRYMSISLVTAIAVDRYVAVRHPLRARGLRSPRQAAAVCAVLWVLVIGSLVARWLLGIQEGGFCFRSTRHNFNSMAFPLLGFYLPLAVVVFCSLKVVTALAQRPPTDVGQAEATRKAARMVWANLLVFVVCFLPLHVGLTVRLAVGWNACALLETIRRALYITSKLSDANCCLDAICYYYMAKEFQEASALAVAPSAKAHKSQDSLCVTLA

[8] = target: T3, Replicative DNA helicase DnaB (Mycobacterium tuberculosis, UniProt P9WMR3); test: DnaB intein splicing inhibitors, dose response, biochemical, cell-free fluorescence (AID 449749); format: functional
T3 sequence (P9WMR3 whole entry): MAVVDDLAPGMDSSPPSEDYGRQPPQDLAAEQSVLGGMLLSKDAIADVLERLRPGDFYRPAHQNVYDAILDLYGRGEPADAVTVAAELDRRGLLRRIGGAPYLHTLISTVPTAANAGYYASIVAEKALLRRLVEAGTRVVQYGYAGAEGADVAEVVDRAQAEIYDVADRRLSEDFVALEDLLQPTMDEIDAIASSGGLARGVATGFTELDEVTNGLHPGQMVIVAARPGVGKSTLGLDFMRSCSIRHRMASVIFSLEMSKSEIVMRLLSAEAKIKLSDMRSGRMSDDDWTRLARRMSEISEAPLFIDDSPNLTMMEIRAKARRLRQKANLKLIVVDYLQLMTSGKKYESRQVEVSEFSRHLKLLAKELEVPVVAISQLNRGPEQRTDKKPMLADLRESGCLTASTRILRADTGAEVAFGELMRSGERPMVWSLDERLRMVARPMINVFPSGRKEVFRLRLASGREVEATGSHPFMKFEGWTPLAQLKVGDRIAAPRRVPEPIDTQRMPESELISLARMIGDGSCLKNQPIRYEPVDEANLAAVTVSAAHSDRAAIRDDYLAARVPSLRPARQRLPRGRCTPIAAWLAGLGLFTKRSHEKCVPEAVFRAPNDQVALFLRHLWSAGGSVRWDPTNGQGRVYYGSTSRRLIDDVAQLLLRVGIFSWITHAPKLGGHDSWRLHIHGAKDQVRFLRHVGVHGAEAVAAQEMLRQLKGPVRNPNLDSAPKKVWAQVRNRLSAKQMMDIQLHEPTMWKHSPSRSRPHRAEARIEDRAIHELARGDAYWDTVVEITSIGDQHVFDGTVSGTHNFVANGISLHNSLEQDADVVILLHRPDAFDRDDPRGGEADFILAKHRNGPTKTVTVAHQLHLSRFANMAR

Protein RecA = target: T4, Protein RecA (Mycobacterium tuberculosis, UniProt P9WHJ3); test: Fluorescence Cell-Free Homogeneous Dose Retest to Identify Inhibitors of RecA-Intein Splicing Activity. [Related pubchem assays (depositor defined):AID2097, AID2223, AID489010, AID492950]; format: functional
T4 sequence (P9WHJ3 whole entry): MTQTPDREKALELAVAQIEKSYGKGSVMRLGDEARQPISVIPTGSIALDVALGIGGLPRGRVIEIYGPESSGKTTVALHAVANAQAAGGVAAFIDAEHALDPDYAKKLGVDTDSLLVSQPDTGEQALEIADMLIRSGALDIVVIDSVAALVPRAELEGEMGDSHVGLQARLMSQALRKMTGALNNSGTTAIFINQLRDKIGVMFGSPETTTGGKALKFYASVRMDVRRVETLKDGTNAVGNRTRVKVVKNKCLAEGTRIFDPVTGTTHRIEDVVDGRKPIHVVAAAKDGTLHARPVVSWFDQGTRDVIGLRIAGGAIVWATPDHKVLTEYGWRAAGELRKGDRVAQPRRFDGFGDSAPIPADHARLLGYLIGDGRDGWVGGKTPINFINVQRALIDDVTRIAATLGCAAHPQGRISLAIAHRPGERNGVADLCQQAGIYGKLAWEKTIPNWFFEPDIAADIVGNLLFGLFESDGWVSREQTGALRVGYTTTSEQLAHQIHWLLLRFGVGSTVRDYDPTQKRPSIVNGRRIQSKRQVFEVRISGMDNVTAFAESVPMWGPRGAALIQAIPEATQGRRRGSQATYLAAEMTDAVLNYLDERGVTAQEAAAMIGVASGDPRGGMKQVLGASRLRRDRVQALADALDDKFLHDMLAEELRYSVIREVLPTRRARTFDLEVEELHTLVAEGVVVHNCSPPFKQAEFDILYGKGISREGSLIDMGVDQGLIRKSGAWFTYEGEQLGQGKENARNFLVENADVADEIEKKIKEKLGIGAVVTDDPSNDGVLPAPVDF

Protein skinhead-1 = target: T5, Protein skinhead-1 (Caenorhabditis elegans, UniProt P34707); format: functional
T5 sequence (P34707 whole entry): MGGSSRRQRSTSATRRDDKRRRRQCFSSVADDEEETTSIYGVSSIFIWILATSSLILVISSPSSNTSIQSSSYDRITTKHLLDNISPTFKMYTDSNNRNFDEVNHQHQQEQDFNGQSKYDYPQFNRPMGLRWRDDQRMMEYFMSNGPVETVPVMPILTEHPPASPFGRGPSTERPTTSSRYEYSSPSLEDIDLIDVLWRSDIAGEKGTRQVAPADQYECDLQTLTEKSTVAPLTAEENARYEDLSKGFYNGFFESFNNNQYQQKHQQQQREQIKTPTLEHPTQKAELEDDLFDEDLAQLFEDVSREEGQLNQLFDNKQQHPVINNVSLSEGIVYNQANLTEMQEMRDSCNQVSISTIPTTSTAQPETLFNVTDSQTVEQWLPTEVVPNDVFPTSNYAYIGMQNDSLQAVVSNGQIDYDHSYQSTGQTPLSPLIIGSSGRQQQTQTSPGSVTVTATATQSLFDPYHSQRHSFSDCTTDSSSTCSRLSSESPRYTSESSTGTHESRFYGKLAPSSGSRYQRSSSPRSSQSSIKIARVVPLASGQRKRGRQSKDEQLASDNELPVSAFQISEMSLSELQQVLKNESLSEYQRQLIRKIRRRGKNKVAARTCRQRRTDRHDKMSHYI

[9] = A549 cell cytotoxicity, dose response, cytotoxicity control, plate reader, cherry-pick, antagonist series (AID 743412); format: functional, cell-based
[10] = HepG2 cell cytotoxicity, dose response, cytotoxicity control, plate reader, cherry-pick, antagonist series (AID 743416); format: functional, cell-based
[11] = LGR2 antagonists, dose response, cell-based, HEK293, CRE-luciferase reporter, cherry pick, set 2 (AID 743343); format: functional;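 also: transfected cells were stimulated with diluted bursicon conditioned medium after compound addition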
[12] = MC4R antagonists, dose response, counter-screen for LGR2 antagonist project, cell-based, plate reader, cherry pick (AID 743444); format: functional;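 also: transfected HEK 293 cells stimulated with alpha-MSH peptide; potency of inhibitors of the alpha-MSH evoked signal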
[13] = HEK293 cell cytotoxicity, dose response, cytotoxicity control, plate reader, cherry-picked samples (AID 743446); format: functional, cell-based
[14] = intracellular Trypanosoma cruzi inhibitors in host cells – cell-based, plate reader, cherry-pick samples, set 3, dose response (AID 651818); format: functional;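 also: compounds incubated with infected cells for about four days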
Paired box protein Pax-8 = Paired box protein Pax-8 (Homo sapiens, UniProt Q06710); test: inhibitors of PAX8-driven TPO luciferase reporter, dose response, RMG-I cells, cherry-pick (AID 687027); format: functional, cell-based;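 also: luciferase reporter driven by Pax8 target thyroperoxidase promoter measured by SteadyGlo luminescence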
Sequence of Paired box protein Pax-8 (Q06710 whole entry): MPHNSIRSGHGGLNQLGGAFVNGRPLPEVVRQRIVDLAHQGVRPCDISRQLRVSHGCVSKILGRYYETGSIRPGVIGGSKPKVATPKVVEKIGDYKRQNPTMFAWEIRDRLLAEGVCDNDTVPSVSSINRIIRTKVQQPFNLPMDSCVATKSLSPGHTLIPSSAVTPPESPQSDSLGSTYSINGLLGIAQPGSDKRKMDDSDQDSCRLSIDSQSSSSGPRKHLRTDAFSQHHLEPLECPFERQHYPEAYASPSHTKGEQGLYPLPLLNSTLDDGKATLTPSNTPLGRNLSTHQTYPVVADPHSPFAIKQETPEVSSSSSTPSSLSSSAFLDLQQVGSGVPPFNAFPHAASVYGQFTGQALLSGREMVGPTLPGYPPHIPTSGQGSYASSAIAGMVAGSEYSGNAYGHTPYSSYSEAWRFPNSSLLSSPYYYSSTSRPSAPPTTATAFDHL

[15] = NIH:OVCAR-3 ovarian cancer cell cytotoxicity, dose response, PAX8 inhibitor project, plate reader, dry powder samples (AID 743044); format: functional, cell-based
[16] = cytotoxicity in OVCAR8 ovarian cancer cells, dose response, PAX8 project, cell-based, plate reader, dry powder samples (AID 743197); format: functional; conditions: OVCAR-8
[17] = HEK293T cytotoxicity, dose response, cytotoxicity control for miR-122 modulator project, cell-based, inhibitor set, cherry-pick, set 2 (AID 720697); format: functional

NS(=O)(=O)c1ccc(NC(=O)COC(=O)c2c3c(nc4ccccc24)/C(=C\c2ccc4c(c2)OCO4)CCC3)cc1
EC50 [1]: 17.5 µM (active) | EC50 [2]: 18.3 µM (active) | AC50 [3]: 3.72 µM (active) | IC50 [4]: 11.9 µM (active) | IC50 [5]: 21.1 µM (active)

O=C(Nc1ccccn1)c1ccc2c(=O)n3c(nc2c1)CCCCC3
AC50 [6]: 7.7 µM (active)

O=c1c(Cl)c(Cl)cnn1Cc1ccccc1Cl
IC50 [7]: 2.16 µM (active) | AC50 [8]: 15.5 µM (active) | EC50 (Protein RecA): 7.78 µM (active)

CN(C)CC(O)c1ccc(C=Cc2ccc(Cl)cc2)cc1 (stereo not drawn)
IC50 (Protein skinhead-1): 58.1 µM (inactive) | AC50 [9]: 8.82 µM (active) | AC50 [10]: 8.24 µM (active) | AC50 [11]: 14.6 µM (active) | AC50 [12]: 12.7 µM (active) | AC50 [13]: 14.3 µM (active)

Cc1cccc(C)c1-n1nnnc1C(CCc1ccccc1)N1CCC(n2c(O)nc3ccccc32)CC1 (stereo not drawn)
AC50 [9]: 16.6 µM (active) | AC50 [10]: 2.71 µM (active) | AC50 [11]: 9.92 µM (active) | AC50 [12]: 8.26 µM (active) | AC50 [13]: 6.12 µM (active)

C[C@H]1CN([C@@H](C)CO)C(=O)Cc2cc(NC(=O)NC3CCCCC3)ccc2O[C@H]1CN(C)Cc1ccc(-c2ccccc2)cc1
AC50 [14]: 2.67 µM (active) | AC50 (Paired box protein Pax-8): 5.8 µM (active) | AC50 [15]: 54.3 µM (active) | AC50 [16]: > 70 µM (inactive)

C[C@H](CO)N1C[C@H](C)[C@@H](CN(C)Cc2ccc(Cl)c(Cl)c2)Oc2ccc(NC(=O)Nc3ccc(F)cc3)cc2CC1=O
AC50 (Paired box protein Pax-8): 13.2 µM (active) | AC50 [16]: 54.4 µM (active)

C[C@@H]1CN([C@H](C)CO)S(=O)(=O)c2ccc(-c3ccc(C(=O)N(C)C)cc3)cc2O[C@@H]1CN(C)C(=O)C1CCC1
AC50 [17]: 0.493 µM (active)

CN(C[C@H]1N[C@@H](CO)[C@@H]1c1ccc(C2=CCCC2)cc1)C(=O)c1ccccn1
AC50 [17]: 2.46 µM (active)
